System: LNCaP cells
Assay: LNCaP cell viability assay (MTS)
Format: cell-based
Details: Homo sapiens, LNCaP, 48 h, LNCaP cell line
Protocol: LNCaP cell line was used for the cell viability assay. LNCaP cells were plated in 96-well plates at a density of 5000 cells per well. After 24 hours of plating, the cells were treated with increasing doses of compound (e.g., compounds 1-269) ranging from 1 μM to 80 μM. Relative cell numbers were analyzed after 48 hours using 3-(4,5-dimethylthiazol-2-yl)-5-(3-carboxymethoxyphenyl)-2-(4-sulfophenyl)-2H-tetrazolium (MTS) assay (Promega) according to the manufacturer's instructions.
The cell viability data was analyzed with GraphPad Prism software. The values were log transformed and analyzed with non-linear regression (curve-fit) using log(inhibitor) vs. response-variable slope (four parameters) and constraining the bottom to equal zero. Unless otherwise indicated, the GI50 values provided in Table 113 correspond to the LNCaP cell viability assays.

Row | SMILES | GI50
1 | O=S(=O)(NC(c1cccc(C(F)(F)F)c1)C1CCCCC1)c1ccc(OC(F)(F)F)cc1 (stereo not drawn) [Compound 36, N-(cyclohexyl(3-(trifluoromethyl)phenyl)methyl)-4-(trifluoromethoxy)benzenesulfonamide] | 29.1 µM
2 | COC(=O)CC(NS(=O)(=O)c1ccc(OC(F)(F)F)cc1)C1CCCCC1 (stereo not drawn) [Compound 37, Methyl 3-cyclohexyl-3-((4-(trifluoromethoxy)phenyl)sulfonamido)propanoate] | 60 µM
3 | COC(=O)CC(NS(=O)(=O)c1ccc(OC(F)(F)F)cc1)c1cccc(Br)c1 (stereo not drawn) [Compound 38, Methyl 3-(3-bromophenyl)-3-((4-(trifluoromethoxy)phenyl)sulfonamido)propanoate] | 66.5 µM
4 | COC(=O)C[C@H](NS(=O)(=O)c1ccc(OC(F)(F)F)cc1)c1cc(Cl)cc(Cl)c1 [Compound 39, Methyl (S)-3-(3,5-dichlorophenyl)-3-((4-(trifluoromethoxy)phenyl)sulfonamido)propanoate] | 35.3 µM
5 | COC(=O)[C@H](Cc1ccc(Cl)c(Cl)c1)NS(=O)(=O)c1ccc(OC(F)(F)F)cc1 [Compound 40, Methyl (S)-3-(3,4-dichlorophenyl)-2-((4-(trifluoromethoxy)phenyl)sulfonamido)propanoate] | 57.2 µM
6 | O=S(=O)(NC(c1cccc(Cl)c1)C1CCCC1)c1ccc(OC(F)(F)F)cc1 (stereo not drawn) [Compound 41, N-((3-chlorophenyl)(cyclopentyl)methyl)-4-(trifluoromethoxy)benzenesulfonamide] | 37.3 µM
7 | CCOC(=O)C(Cc1cc(Cl)sc1Cl)NS(=O)(=O)c1ccc(OC(F)(F)F)cc1 (stereo not drawn) [Compound 42, Ethyl 3-(2,5-dichlorothiophen-3-yl)-2-((4-(trifluoromethoxy)phenyl)sulfonamido)propanoate] | 57.8 µM
8 | CCOC(=O)[C@@H](Cc1ccc(OC)cc1)NS(=O)(=O)c1ccc(OC(F)(F)F)cc1 [Compound 43, Ethyl (R)-3-(4-methoxyphenyl)-2-((4-(trifluoromethoxy)phenyl)sulfonamido)propanoate] | 72 µM
9 | O=S(=O)(NC(Cc1cccc(Br)c1)CC(F)(F)F)c1ccc(OC(F)(F)F)cc1 (stereo not drawn) [Compound 44, N-(1-(3-bromophenyl)-4,4,4-trifluorobutan-2-yl)-4-(trifluoromethoxy)benzenesulfonamide] | 59 µM
10 | CCOC(=O)C(Cc1ccccc1Cl)NS(=O)(=O)c1ccc(OC(F)(F)F)cc1 (stereo not drawn) [Compound 45, Ethyl 3-(2-chlorophenyl)-2-((4-(trifluoromethoxy)phenyl)sulfonamido)propanoate] | 46 µM
11 | CCOC(=O)CC(NS(=O)(=O)c1ccc(OC(F)(F)F)cc1)c1cccc(Br)c1 (stereo not drawn) [Compound 46, Ethyl 3-(3-bromophenyl)-3-((4-(trifluoromethoxy)phenyl)sulfonamido)propanoate] | 49 µM
12 | CCOC(=O)C(CC(C)CC)NS(=O)(=O)c1ccc(OC(F)(F)F)cc1 (stereo not drawn) [Compound 47, Ethyl 4-methyl-2-((4-(trifluoromethoxy)phenyl)sulfonamido)hexanoate] | 70 µM
13 | CN(Cc1ccccc1Br)C(=O)CCNS(=O)(=O)c1ccc(OC(F)(F)F)cc1 [Compound 48, N-(2-bromobenzyl)-N-methyl-3-((4-(trifluoromethoxy)phenyl)sulfonamido)propenamide] | 43 µM
14 | O=S(=O)(NCC1CCCCC1c1ccccc1)c1ccc(OC(F)(F)F)cc1 (stereo not drawn) [Compound 49, N-((2-phenylcyclohexyl)methyl)-4-(trifluoromethoxy)benzenesulfonamide] | 39 µM
15 | O=S(=O)(NCCC(O)(C(F)(F)F)C(F)(F)F)c1ccc(OC(F)(F)F)cc1 [Compound 50, N-(4,4,4-trifluoro-3-hydroxy-3-(trifluoromethyl)butyl)-4-(trifluoromethoxy)benzenesulfonamide] | 71 µM
16 | O=S(=O)(NCCC(c1ccccc1)C(F)(F)F)c1ccc(OC(F)(F)F)cc1 (stereo not drawn) [Compound 51, N-(4,4,4-trifluoro-3-phenylbutyl)-4-(trifluoromethoxy)benzenesulfonamide] | 55 µM
17 | CCC(C#N)Oc1cccc(CNS(=O)(=O)c2ccc(OC(F)(F)F)cc2)c1 (stereo not drawn) [Compound 52, N-(3-(1-cyanopropoxy)benzyl)-4-(trifluoromethoxy)benzenesulfonamide] | 72 µM
18 | COCCC1(CNS(=O)(=O)c2ccc(OC(F)(F)F)cc2)CCCCC1 [Compound 53, N-((1-(2-methoxyethyl)cyclohexyl)methyl)-4-(trifluoromethoxy)benzenesulfonamide] | 66 µM
19 | CCCCN(CCNS(=O)(=O)c1ccc(OC(F)(F)F)cc1)Cc1cccc(Cl)c1 [Compound 54, N-(2-(butyl(3-chlorobenzyl)amino)ethyl)-4-(trifluoromethoxy)benzenesulfonamide] | 33 µM
20 | CC(C)CCOc1ccccc1CCNS(=O)(=O)c1ccc(OC(F)(F)F)cc1 [Compound 55, N-(2-(isopentyloxy)phenethyl)-4-(trifluoromethoxy)benzenesulfonamide] | 57 µM
21 | O=S(=O)(NCC1(c2c(Cl)cccc2Cl)CCC1)c1ccc(OC(F)(F)F)cc1 [Compound 56, N-((1-(2,6-dichlorophenyl)cyclobutyl)methyl)-4-(trifluoromethoxy)benzenesulfonamide] | 30 µM
22 | O=S(=O)(NCC1(c2cccc(C(F)(F)F)c2)CCC1)c1ccc(OC(F)(F)F)cc1 [Compound 57, 4-(trifluoromethoxy)-N-((1-(3-(trifluoromethyl)phenyl)cyclobutyl)methyl)benzenesulfonamide] | 38 µM
23 | CC(C)N(C)c1ccccc1CNS(=O)(=O)c1ccc(OC(F)(F)F)cc1 [Compound 58, N-(2-(isopropyl(methyl)amino)benzyl)-4-(trifluoromethoxy)benzenesulfonamide] | 20 µM
24 | O=S(=O)(NCc1ccccc1COC1CCCCC1)c1ccc(OC(F)(F)F)cc1 [Compound 59, N-(2-((cyclohexyloxy)methyl)benzyl)-4-(trifluoromethoxy)benzenesulfonamide] | 23 µM
25 | Cc1ccc(C2(CNS(=O)(=O)c3ccc(OC(F)(F)F)cc3)CC2)c(C)c1 [Compound 60, N-((1-(2,4-dimethylphenyl)cyclopropyl)methyl)-4-(trifluoromethoxy)benzenesulfonamide] | 44 µM
26 | O=S(=O)(NCC1(c2cccs2)CCCC1)c1ccc(OC(F)(F)F)cc1 [Compound 61, N-((1-(thiophen-2-yl)cyclopentyl)methyl)-4-(trifluoromethoxy)benzenesulfonamide] | 38 µM
27 | O=S(=O)(NCc1cc(Cl)ccc1OC(F)F)c1ccc(OC(F)(F)F)cc1 [Compound 62, N-(5-chloro-2-(difluoromethoxy)benzyl)-4-(trifluoromethoxy)benzenesulfonamide] | 70 µM
28 | CC(C)CN(CCNS(=O)(=O)c1ccc(OC(F)(F)F)cc1)CC(C)C [Compound 63, N-(2-(diisobutylamino)ethyl)-4-(trifluoromethoxy)benzenesulfonamide] | 60 µM
29 | CCCCN(CCCNS(=O)(=O)c1ccc(OC(F)(F)F)cc1)Cc1ccccc1 [Compound 64, N-(3-(benzyl(butyl)amino)propyl)-4-(trifluoromethoxy)benzenesulfonamide] | 36 µM
30 | CC(C)(C)OC(=O)N1CC(F)(F)CC1CNS(=O)(=O)c1ccc(OC(F)(F)F)cc1 (stereo not drawn) [Compound 65, Tert-butyl 4,4-difluoro-2-(((4-(trifluoromethoxy)phenyl)sulfonamido)methyl)pyrrolidine-1-carboxylate] | 43 µM

From patent US20240174603A1 (Rappta Therapeutics Oy, priority 2021, published 2024)
